Source: patent US8940765B2, “N-linked quinolineamide M1 receptor positive allosteric modulators” (Merck Sharp & Dohme Corp., priority 2011, dated 2015)
pEC50: −log10 of the molar value.

Target: T1, acetylcholine muscarinic M1 receptor (Homo sapiens, UniProt P11229)
T1 construct: expressed in transfected cells; host or cells: CHOnfat cells (CHO with NFAT reporter background) stably expressing hM1, Geneticin selection
T1 sequence (P11229 1-460): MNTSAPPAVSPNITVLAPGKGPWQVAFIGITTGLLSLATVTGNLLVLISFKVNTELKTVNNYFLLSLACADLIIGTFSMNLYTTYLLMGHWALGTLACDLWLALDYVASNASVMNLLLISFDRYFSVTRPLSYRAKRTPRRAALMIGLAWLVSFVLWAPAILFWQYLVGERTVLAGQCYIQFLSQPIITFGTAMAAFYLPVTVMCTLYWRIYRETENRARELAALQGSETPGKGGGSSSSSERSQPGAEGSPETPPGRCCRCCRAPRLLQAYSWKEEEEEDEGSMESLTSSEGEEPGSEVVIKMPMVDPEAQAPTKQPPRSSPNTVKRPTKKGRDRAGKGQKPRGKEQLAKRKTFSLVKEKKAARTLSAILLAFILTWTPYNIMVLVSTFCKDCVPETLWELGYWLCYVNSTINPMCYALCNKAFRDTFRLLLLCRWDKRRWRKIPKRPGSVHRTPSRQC
Assay: muscarinic FLIPR assay: intracellular calcium in CHOnfat/hM1 cells, potentiation of EC20 acetylcholine
Type: cell-based
Details: FLIPR Ca2+, 4 min preincubation, then EC20 acetylcholine (3 nM final), read-out: IP Value (inflection point)
Procedure: The assay studies the effect of one or several concentrations of test compounds on basal or acetylcholine-stimulated Ca^2+ levels using FLIPR.
Compounds are prepared and subjected to a preincubation period of 4 min. Thereafter, a single EC20 concentration of acetylcholine is added to each well (3 nM final). The intracellular Ca^2+ level of each sample is measured and compared to an acetylcholine control to determine any modulatory activity.
Cells: CHOnfat/hM1, hM2, hM3 or hM4 cells are plated 24 hr before the assay at a density of 18,000 cells/well (100 μL) in a 384 well plate. CHOnfat/hM1 and CHOnfat/hM3 Growth Medium: 90% DMEM (Hi Glucose); 10% HI FBS; 2 mM L-glutamine; 0.1 mM NEAA; Pen-Strep; and 1 mg/ml Geneticin, are added. For M2Gqi5CHOnfat and M4Gqi5CHOnfat cells, an additional 600 ug/ml hygromycin is added.
Equipment: 384 well plate, 120 μL addition plate; 96-well Whatman 2 ml Uniplate Incubator, 37° C., 5% CO2; Skatron EMBLA-384 Plate Washer; Multimek Pipetting System; Genesis Freedom 200 System; Mosquito System; Temo Nanoliter Pipetting System; and FLIPR384 Fluorometric Imaging Plate Reader System are used.
Buffers. Assay Buffer: Hanks Balanced Salt Solution, with 20 mM Hepes, 2.5 mM Probenecid (Sigma P-8761) first dissolved in 1 N NaOH, 1% Bovine Serum Albumin (Sigma A-9647). Dye Loading Buffer: Assay Buffer plus 1% Fetal Bovine Serum and Fluo-4AM/Pluronic Acid Mixture. 2 mM Fluo-4AM ester stock in DMSO (Molecular Probes F-14202) Concentration of 2 μM in buffer for a final concentration of 1 μM in Assay. 20% Pluronic Acid Solution stock, with concentration of 0.04% in Buffer, 0.02% in Assay.
65 μl, of 2 mM Fluo-4AM are mixed with 130 μL of 20% Pluronic Acid. The resulting solution and 650 μL FBS is added to the assay buffer for a total volume of 65 mL. Positive Controls: 4-Br-A23187: 10 mM in DMSO; final concentration 10 μM. Acetylcholine: 10 mM in water, working stock at both 20 μM and 30 μM in assay buffer, final concentration of 10 μM. This is used to check the maximum stimulation of the CHOK1/hM1 cells. 20 μM (2×) acetylcholine is added in the preincubation part of the assay, and the 30 μM (3×) stock is added in the second part. (EC20)Acetylcholine: 10 mM in water, working stock of 9 nM (3×), and final concentration in assay is 3 nM. This is used after the preincubation with test compounds. Addition of the EC20 Acetylcholine to each well with a test compound will ascertain any modulator activity. 24 wells contain 3 nM Acetylcholine alone as a control.
Determining Activity of Putative Compounds:
Screening Plate: Compounds are titrated in 96-well plates (columns 2-11), 100% DMSO, started at a concentration of 15 mM (150× stock concentration), and 3-fold serial dilutions using Genesis Freedom200 System. Four 96-well plates are combined into a 384-well plate using Mosquito Nanoliter Pipetting System by transferring 1 μl of serial diluted compounds to each well, and 1 mM acetylcholine (100× stock concentration) were added as a control. Using Temo, 49 μl assay buffer is added to each well of the 384-well plate right before assay.
In a 96-well Whatman 2 ml Uniplate, 9 nM Acetylcholine (3×) is pipetted into wells corresponding to the screening compounds, and into control wells. The 30 μM acetylcholine control (3×) is added into control wells, and the 3× agonist plate is transferred into a 384 well plate.
Cells are washed three times with 100 μL of buffer, leaving 30 μL of buffer in each well. Using Multimek, 30 μl, of Dye Loading Buffer is added into each well and incubated at 37° C., 5% CO2 for up to one hr.
After […], the cells are washed three times with 100 μL of buffer, leaving 30 μL of buffer in each well. The cell plate, screening plate, and agonist addition plates are placed on the platform in the FLIPR and the door closed. A signal test to check background fluorescence and basal fluorescence signal is performed. Laser intensity is adjusted if necessary. […]

SMILES	pEC50
N#CC1(c2ccccn2)CCN(Cc2cc(C(=O)N[C@H]3CCCC[C@@H]3O)nc3ccccc23)CC1 [Example 1, 4-[(4-cyano-4-pyridin-2-ylpiperidin-1-yl)methyl]-N-[(1S,2S)-2-hydroxycyclohexyl]quinoline-2-carboxamide]	7.27
Cn1cc(N2CCN(Cc3cc(C(=O)N[C@H]4CCCC[C@@H]4O)nc4ccccc34)CC2)cn1 [Example 2, N-[(1S,2S)-2-hydroxycyclohexyl]-4-{[4-(1-methyl-1H-pyrazol-4-yl)piperazin-1-yl]methyl}quinoline-2-carboxamide]	6.43
Cc1ccnc(C2(C#N)CCN(Cc3cc(C(=O)N[C@H]4CCCC[C@@H]4O)nc4ccccc34)CC2)c1 [Example 3, 4-{[4-cyano-4-(4-methylpyridin-2-yl)piperidin-1-yl]methyl}-N-[(1S,2S)-2-hydroxycyclohexyl]quinoline-2-carboxamide]	7.70
N#CC1(c2ccccc2)CCN(Cc2cc(C(=O)N[C@H]3CCCC[C@@H]3O)nc3ccccc23)CC1 [Example 4, 4-[(4-cyano-4-phenylpiperidin-1-yl)methyl]-N-[(1S,2S)-2-hydroxycyclohexyl]quinoline-2-carboxamide]	6.49
N#CC1(c2ccccc2F)CCN(Cc2cc(C(=O)N[C@H]3CCCC[C@@H]3O)nc3ccccc23)CC1 [Example 5, 4-{[4-cyano-4-(2-fluorophenyl)piperidin-1-yl]methyl}-N-[(1S,2S)-2-hydroxycyclohexyl]quinoline-2-carboxamide]	7.09
N#CC1(c2ccccc2Cl)CCN(Cc2cc(C(=O)N[C@H]3CCCC[C@@H]3O)nc3ccccc23)CC1 [Example 6, 4-{[4-(2-chlorophenyl)-4-cyanopiperidin-1-yl]methyl}-N-[(1S,2S)-2-hydroxycyclohexyl]quinoline-2-carboxamide]	6.93
Cc1ccccc1C1(C#N)CCN(Cc2cc(C(=O)N[C@H]3CCCC[C@@H]3O)nc3ccccc23)CC1 [Example 7, 4-{[4-cyano-4-(2-methylphenyl)piperidin-1-yl]methyl}-N-[(1S,2S)-2-hydroxycyclohexyl]quinoline-2-carboxamide]	6.87
Cc1ccnc(C2(C#N)CCN(Cc3cc(C(=O)N[C@H]4CCOC[C@@H]4O)nc4ccccc34)CC2)c1 [Example 8, 1,5-anhydro-3-{[(4-{[4-cyano-4-(4-methylpyridin-2-yl)piperidin-1-yl]methyl}quinolin-2-yl)carbonyl]amino}-2,3-dideoxy-L-threo-pentitol]	7.57
N#CC1(c2cccnc2)CCN(Cc2cc(C(=O)N[C@H]3CCCC[C@@H]3O)nc3ccccc23)CC1 [Example 9, 4-[(4-cyano-4-pyridin-3-ylpiperidin-1-yl)methyl]-N-[(1S,2S)-2-hydroxycyclohexyl]quinoline-2-carboxamide]	7.27
